Patent US8148347B2, “Inhibition of interaction of PSD93 and PSDS95 with nNOS and NMDA receptors” (The Johns Hopkins University, priority 2000, dated 2012)

Test system: c-fos
Assay: c-fos immunohistochemistry in lumbar spinal cord after formalin
Type: in vivo, rat
Experimental: All of the experiments were carried out with the approval of the Animal Care Committee at the Johns Hopkins University. Thirty-eight male Sprague-Dawley rats (250-300 g, Hilltop Laboratory Animals, Scottsdale, Pa., USA) were implanted with an intrathecal PE-10 catheter at the rostral level of the spinal cord lumbar enlargement according to the method described by Yaksh and Rudy. After 4 to 7 days of recovery, they were intrathecally injected with one of the following agents every 24 hours for 4 consecutive days: saline (10 μl, n=6), PSD-95 antisense oligodeoxynucleotide (ODN) (12.5 μg/10 μl, n=6; 25 μg/10 μl, n=6; 50 μg/10 μl, n=6), sense ODN (50 μg/10 μl, n=5) or missense ODN (50 μg/10 μl, n=9). On the fifth day, formalin (4%, 100 μl) was injected into one of the hindpaws. The number of flinches and shakes of the injected paw was assessed for 1 hour. The observational session was divided into phasic (0-10 min) and tonic (10-60 min) periods. Rats were sacrificed two hours after formalin injection and their lumbar spinal cords were harvested for c-fos immunohistochemistry.

Substance: 5′-TGTGATCTCCTCATACTC-3′ (DNA, backbone and methylation of C not given here; listed as Rattus rattus) [antisense oligonucletide corresponding to the PDZ domain nucleotides 241 to 258 of rat PSD-95/SAP90 mRNA]
- decrease of the number of Fos-like immunoreactive neurons per section (50 μg intrathecal): 48%
- changes in the number of Fos-like immunoreactive neurons vs saline-treated group (12.5 and 25 μg): failed to produce significant changes
